Experimental data taken from patent US9877997B2, “Methods and compositions for regulating SRCA2A expression levels in myocardial infarction” (Stealth BioTherapeutics Corp., priority 2013, dated 2018).

Assays:
[1] = test system: plasma membrane of several mammalian cell types; settings: energy-independent manner; cited from earlier work
[2] = test system: Rats with permanent coronary artery ligation; test: Post-infarction remodeling in a rodent model of heart failure, LV chamber volume (Example 3); format: in vivo, rat
Method: Rats underwent the permanent coronary artery ligation, as described in Example 2. The rats were split into two groups and treated for six weeks with either 3 mg/kg/day of D-Arg-2′6′-Dmt-Lys-Phe-NH2 or 0.9% NaCl (saline) continuously through mini-osmotic pumps, which were implanted into each animal.
After the six week period, LV function was assessed with echocardiography. Additionally, the hearts were excised and the heart tissue analyzed for LV chamber volume using tetrazolium salt staining Heart tissue in the border zone and remote areas around the infarct were also harvested and underwent gene array analysis to determine the expression levels of genes involved in mitochondrial metabolism.

[3] = test system: SERCA2a expression; test: SERCA2a expression by qRT-PCR in heart samples post-myocardial infarction (Example 1); format: in vivo; settings: rat, 6 weeks, normalized to β-actin, relative to sham
Method: Rats were anesthetized, ventilated, and a thoracotomy performed in the left 4th intercostal space. Temperature was maintained at 36° C. by placing the rats on a heating pad during the procedure. The pericardium was excised and the proximal left coronary artery isolated and permanently occluded with a suture. Coronary artery occlusion was confirmed by cyanosis and akinesis of the anterior wall of the ventricle. The chest was closed, air evacuated, and the rats allowed to recover. Analgesia was administered per the veterinarian. An echocardiogram was obtained at approximately 15 minutes post coronary artery occlusion. At 2 hours rats were randomized to receive chronic daily D-Arg-2′6′-Dmt-Lys-Phe-NH2 (delivered subcutaneously by an Alzet Osmotic Pump—3 mg/kg/day, n=7), water (n=7), sham operation (normal non-infarct hearts, n=7). The Osmotic Pump delivered approximately 0.15 μl/hr for 6 weeks (model 2006; 200 μl). The Alzat pump was implanted subcutaneously between the shoulder blades while the rat was still anesthetized.
After 6 weeks, heart samples were collected from shams, border zone cells of water-treated infarcted hearts (MI/BZ) and D-Arg-2′6′-Dmt-Lys-Phe-NH2-treated hearts (MI/BZ+AP), and remote noninfarcted area cells of water-treated hearts (MI/R) and of D-Arg-2′6′-Dmt-Lys-Phe-NH2-treated hearts (MI/R+AP). […]

[4] = test system: Rats with permanent left coronary artery occlusion; test: LV fractional shortening by echocardiography, permanent coronary occlusion (Example 2); format: in vivo, rat
Method: (§1) Rats were anesthetized, ventilated, and a thoracotomy performed in the left 4th intercostal space. Temperature was maintained at 36° C. by placing the rats on a heating pad during the procedure. The pericardium was excised and the proximal left coronary artery isolated and permanently occluded with a suture. Coronary artery occlusion was confirmed by cyanosis and akinesis of the anterior wall of the ventricle. The chest was closed, air evacuated, and the rats allowed to recover. Analgesia was administered per the veterinarian. An echocardiogram was obtained at approximately 15 minutes post coronary artery occlusion. At 2 hours rats were randomized to receive chronic daily D-Arg-2′6′-Dmt-Lys-Phe-NH2 (delivered subcutaneously by an Alzet Osmotic Pump—3 mg/kg/day) or water. The Osmotic Pump delivered approximately 0.15 μl/hr for 6 weeks (model 2006; 200 μl). The Alzat pump was implanted subcutaneously between the shoulder blades while the rat was still anesthetized. After 6 weeks the rats were re-anesthetized, weighed, and a second echocardiogram was obtained under anesthesia. Cut downs were performed to isolate the carotid artery and jugular vein. Heart rate and blood pressure were measured. A Millar catheter was inserted into the left ventricle and LV systolic pressure, LV end diastolic pressure, +dP/dt, and −dP/dt were measured. A left ventriculogram was performed using IV fluoroscopic contrast in order to determine LV stroke volume and ejection fraction. Under deep anesthesia, the heart was excised, weighed, and pressure fixed at 11 mmHg with formalin. The lungs were also excised and weighed. Postmortem LV volume was measured by filling the LV cavity with fluid and measuring the total fluid. […] Quantitative histologic analysis included: total circumference, scar circumference, non-infarcted wall circumference, total LV area, total LV cavity area, LV wall thickness (at several points), non-infarcted wall thickness; myocardial infarct expansion index. […]

[5] = test system: Rats with permanent left coronary artery occlusion; test: Hemodynamics: heart rate, blood pressure and LV pressures by Millar catheter (Example 2); format: in vivo, rat; settings: 6 weeks after treatment
Method: (§2) Rats were anesthetized, ventilated, and a thoracotomy performed in the left 4th intercostal space. Temperature was maintained at 36° C. by placing the rats on a heating pad during the procedure. The pericardium was excised and the proximal left coronary artery isolated and permanently occluded with a suture. Coronary artery occlusion was confirmed by cyanosis and akinesis of the anterior wall of the ventricle. The chest was closed, air evacuated, and the rats allowed to recover. Analgesia was administered per the veterinarian. An echocardiogram was obtained at approximately 15 minutes post coronary artery occlusion. At 2 hours rats were randomized to receive chronic daily D-Arg-2′6′-Dmt-Lys-Phe-NH2 (delivered subcutaneously by an Alzet Osmotic Pump—3 mg/kg/day) or water. The Osmotic Pump delivered approximately 0.15 μl/hr for 6 weeks (model 2006; 200 μl). The Alzat pump was implanted subcutaneously between the shoulder blades while the rat was still anesthetized. After 6 weeks the rats were re-anesthetized, weighed, and a second echocardiogram was obtained under anesthesia. Cut downs were performed to isolate the carotid artery and jugular vein. Heart rate and blood pressure were measured. A Millar catheter was inserted into the left ventricle and LV systolic pressure, LV end diastolic pressure, +dP/dt, and −dP/dt were measured. A left ventriculogram was performed using IV fluoroscopic contrast in order to determine LV stroke volume and ejection fraction. Under deep anesthesia, the heart was excised, weighed, and pressure fixed at 11 mmHg with formalin. The lungs were also excised and weighed. Postmortem LV volume was measured by filling the LV cavity with fluid and measuring the total fluid. The hearts were sliced into four transverse sections and histologic slides were prepared and stained with hematoxylin and eosin and with picrosirius red, which stains collagen. Quantitative histologic analysis included: total circumference, scar circumference, non-infarcted wall circumference, total LV area, total LV cavity area, LV wall thickness (at several points), non-infarcted wall thickness; myocardial infarct expansion index.
(§3) All data is reported as means±SEM. Values between groups were compared by Student t-test. P is significant at p<0.05 level.

[6] = test system: Rats with permanent left coronary artery occlusion; test: LV stroke volume and ejection fraction by LV ventriculography (Example 2); format: in vivo, rat; settings: 6 weeks after treatment, 3 mg/kg/day s.c.
Method: as §1, with “The Osmotic Pump delivered approximately 0.15 μl/hr for 6 weeks (model 2006; 200 μl). The Alzat pump was implanted subcutaneously between the shoulder blades while the rat was still anesthetized. After 6 weeks the rats were re-anesthetized, weighed, and a second echocardiogram was obtained under anesthesia. Cut downs were performed to isolate the carotid artery and jugular vein.” left out, “A left ventriculogram was performed using IV fluoroscopic contrast in order to determine LV stroke volume and ejection fraction. Under deep anesthesia, the heart was excised, weighed, and pressure fixed at 11 mmHg with formalin. The lungs were also excised and weighed.” left out

[7] = test system: Rats with permanent left coronary artery occlusion; test: Quantitative histologic analysis of scar circumference, scar thickness and expansion index (Example 2); format: in vivo, rat; settings: 6 weeks after treatment
Method: as §2, §3

[8] = test system: Rats with permanent left coronary artery occlusion; test: Survival during 6 weeks treatment after coronary occlusion (Example 2); format: in vivo, rat; settings: 6 weeks treatment after randomization at 2 hours post occlusion
Method: as §1, with “The Osmotic Pump delivered approximately 0.15 μl/hr for 6 weeks (model 2006; 200 μl). The Alzat pump was implanted subcutaneously between the shoulder blades while the rat was still anesthetized. After 6 weeks the rats were re-anesthetized, weighed, and a second echocardiogram was obtained under anesthesia. Cut downs were performed to isolate the carotid artery and jugular vein.” left out, “A left ventriculogram was performed using IV fluoroscopic contrast in order to determine LV stroke volume and ejection fraction. Under deep anesthesia, the heart was excised, weighed, and pressure fixed at 11 mmHg with formalin. The lungs were also excised and weighed.” left out

[9] = test system: Rats with permanent left coronary artery occlusion; test: Heart weight and post-mortem LV volume (Example 2); format: in vivo, rat; settings: 6 weeks after treatment
Method: as §1

Substance: 2′,6′-Dmt-D-Arg-Phe-Lys-NH2
- plasma membrane penetration [1]: readily penetrates the plasma membrane

Substance: D-Arg-2′6′-Dmt-Lys-Phe-NH2
- LV volume/heart weight ([2]; 3 mg/kg/day for six weeks by mini-osmotic pump versus 0.9% NaCl, FIG. 6): decrease in LV volume/heart weight
- LV dilation ([2]; 3 mg/kg/day for six weeks by mini-osmotic pump, post-infarction model of heart failure): reduced LV dilation
- SERCA2a expression, border zone cells (MI/BZ+AP) ([3]; 3 mg/kg/day s.c. osmotic pump from 2 hours post occlusion): restored SERCA2a expression to near normal levels
- SERCA2a expression, nonischemic remote area (MI/R) ([3]; 3 mg/kg/day s.c. osmotic pump): no significant differences
- left ventricular fractional shortening (LVFS) ([4]; 6 weeks after treatment, 3 mg/kg/day s.c. osmotic pump from 2 hours post occlusion): 28.8±1.7%
- left ventricular fractional shortening (LVFS) ([4]; 15 minutes after coronary occlusion (before treatment)): 45±1.8
- left ventricular fractional shortening (LVFS) ([4]; baseline before coronary occlusion (before treatment)): 44.5±1.1%
- minimum left ventricular pressure [5]: 0.64±0.55 mmHg
- Diastolic BP ([5]; 3 mg/kg/day s.c.): 85 ± 2 mmHg
- Heart Rate ([5]; 3 mg/kg/day s.c.): 209 ± 5
- Mean BP ([5]; 3 mg/kg/day s.c.): 94 ± 3 mmHg
- Systolic BP ([5]; 3 mg/kg/day s.c.): 114 ± 4 mmHg
- +dp/dt ([5]; left ventricle): 5668
- Ped (end diastolic left ventricular pressure) ([5]; left ventricle): 5.63
- Pes (end systolic left ventricular pressure) ([5]; left ventricle): 105
- Pmin (minimum left ventricular pressure) ([5]; left ventricle): 0.64 +
- Tau Glantz ([5]; left ventricle): 24.6
- Tau Weiss ([5]; left ventricle): 14.6
- −dp/dt ([5]; left ventricle): 3639
- LV ejection fraction [6]: 55.3±1.4%
- LV stroke volume [6]: 0.257 ± 0.008 mL
- Scar circumference (%), expressed as percentage of total LV circumference [7]: 39.7±2.2%
- Scar thickness [7]: 0.504 ± 0.039 mm
- Septum thickness [7]: 1.45 ± 0.03 mm
- LV non-scar circumference ([7]; histological analysis): 15.4±0.4 mm
- scar circumference ([7]; histological analysis): 9.9±0.6 mm
- Expansion index ([7]; [LV cavity area/Total LV area×Septum thickness/Scar thickness]): 1.67 ± 0.12
- deaths during treatment [8]: no rats died
- Heart weight ([9]; 3 mg/kg/day s.c.): 0.724 ± 0.011 g
- LV volume (post-mortem) ([9]; heart pressure fixed at 11 mmHg): 0.519 ± 0.019 mL
- LV volume/heart weight ([9]; post-mortem LV volume standardized by heart weight): 0.72±0.02
